We go through one compound from patent US20210106581A1, “Treatment Of Liver Diseases” (Melior Pharmaceuticals I, Inc., priority 2018, published 2021).

What all share (type): in vivo
For experiment [1], the system named is male C57BL/6 mice on modified high fat diet (mHFD). In words: Modified high fat diet (mHFD) mouse model, serum and liver triglycerides (Example 1). The following applies: 30 mg/kg or 100 mg/kg i.p. once daily, 8 weeks. The protocol:
The animal model was performed essentially as described in Cong et al., Life Sciences, 2008, 82, 983-990. Briefly, male C57BL/6 mice at 6 weeks of age were fed, ad libitum, a modified high fat diet (mHFD) provided by Research Diets, and described in Cong et al. One group of control animals (n=11) remained on standard diet. All animals remained on their respective diets for 23 weeks (29 weeks of age). At that time, animals continued to remain on their respective diets and treatment regimens began. The group of animals on standard diet and one group of animals on mHFD (n=9) received vehicle administered by intraperitoneal injection, once daily. Two additional groups of animals on mHFD (n=8) received Compound 102 administration by intraperitoneal injection, once daily at either 30 mg/kg or 100 mg/kg. Compound 102 was formulated in, and the vehicle used was, 20% hydroxypropyl beta cyclodextrin (HPBCD). Treatment regimen continued for an additional 8 weeks while the animals remained on their respective diets. At the end of 8 weeks of treatment, animals were fasted for 6 hours. […] Serum triglycerides and liver triglyceride were measured from the respective samples using Triglyceride assay kit (Wako Diagnostics, Richmond, Va.; Cat No 461-8992). Data were averaged and are expressed as the average SEM. Data were analyzed by two-way repeated measures ANOVA followed by a Dunnett's post hoc test. […]

Experiment [2] concerns male BALB/c mice with CCl4-induced liver fibrosis. In words: CCl4-induced liver fibrosis mouse model (Example 3). The protocol:
In the following study, 6 to 7 week old male BALB/c mice (25-30 g) were randomized based on body weight after 7-day of CCl4 injections (3 times). Mice were fed standard rodent chow and water ad libitum. The mice were divided into 4 groups, with 12 mice per group. The mice were administered a dose volume of 10 mL/kg (MLR-1023), 2.5 mL/kg (CCl4), each in a formulation of 20% HBPCD/saline and corn oil intraperitoneally (i.p.). The dose level of MLR-1023 was 30 and 100 mg per kg, and the dose level of CCl4 was 5%. The dose frequency of MLR-1023 was once daily (QD), and the dose frequency of CCl4 was 3 times a week (Monday, Wednesday, and Friday). The study duration was 28 days, with MLR-1023 treatment started from day 8 to day 28. CCl4 was obtained from Sigma-Aldrich (St. Louis, Mo.). A commercial kit was used for analyzing liver hydroxyproline content (BioVision, Inc.; Milpitas, Calif.). ALT and AST kits were purchased from BIOO Science (Austin, Tex.). All other reagents used in the study were of analytical grade. Male BALB/c mice were obtained from Charles River Laboratories (Wilmington, Mass.). On the last day of the study all mice were sacrificed by cervical dislocation. Blood/serum samples were collected for the assays of liver enzymes (ALT and AST). Livers were rapidly dissected and part of each liver was cut and fixed in formaldehyde saline (4%) solution for histological analysis; the remainder of the liver was snap frozen in liquid nitrogen, and stored at −70° C. until use. Starting on Day 1, animals were administered i.p. with 5% CCl4 or corn oil (vehicle for CCl4 solution) three days per week (Monday, Wednesday, and Friday) for 4 weeks. CCl4 was formulated as a […] with the dose volume of 2.5 mL/kg, and was freshly formulated on a weekly basis. Animals were weighed weekly. Test compounds and vehicle administrations were performed from Day 8 to Day 28. At the end of study, blood was drawn through retro-orbital punctures for serum collection. The whole liver was removed. One lobe was placed in a tube containing 10% formalin for histopathology, the remainder of the liver lobes were collected and snap frozen for further hydroxyproline assay. Homogenized liver samples were evaluated for hydroxyproline content to assess hepatic collagen levels. Serum was separated by centrifugation at 4° C. and analyzed immediately or stored at −70° C. Serum ALT and AST levels were determined by colorimetric method and using procedures described by the kit manufacturers. Hepatic hydroxyproline content was measured by colorimetric method and expressed as μg/mg wet liver weight. Livers were removed at necropsy and fixed in 10% buffered formalin. Sections of liver were processed routinely, sectioned at approximately 4 microns, and stained with hematoxylin and eosin (H&E) or picrosirius red (PSR). Glass slides were evaluated using light microscopy by a board-certified veterinary/toxicology pathologist in a blind manner. Two sections from each animal were examined. Five animals from each group were randomly chosen for histology analysis. The severity of histologic findings was scored using the Society of Toxicologic Pathology best practices (1=minimal, 2=mild, 3=moderate, 4=marked, 5=Severe). Fibrosis value is corresponding to the fraction of centrilobular areas affected by fibrosis (1=about <10%, 2=about 11-30%, 3=about […], 4=about […], 5=about 71-100%). Liver fibrosis is characterized by increased numbers of fibroblasts and collagen fibers in liver sinusoids that partially, or completely, bridged centrilobular areas. PSR staining severity generally correlated with the mean severity of fibrosis. Overall increased collagen deposition and bridging fibrosis are identified with PSR stain. […]

Experiment [3] deals with male C57BL/6NCrl mice on modified high fat diet (mHFD). In words: Extended mHFD NASH mouse study, 8-week treatment (Example 2). The text has this:
The modified high fat diet (mHFD) was obtained from Research Diets, Inc. (New Brunswick, N.J.) and was formulated according to Cong et al., supra. The mHFD contained 60% fat, 14% protein, and 26% carbohydrate, with total energy content of 21.0 kJ/g. The mHFD contained a low concentration of choline bicitrate a (0.6 g/kg) and DL-methionine (1.5 g/kg). Fatty acid composition of the fats (mainly from lard) in mHFD was 36% saturated fatty acids, 45% monounsaturated fatty acids, and 19% polyunsaturated fatty acids (PUFA).
Male C57BL/6NCrl mice were obtained from Charles River Laboratories (Wilmington, Mass.). Mice were maintained in microisolator cages, in groups of no more than 4 animals per cage, and on a 12-hour light cycle. Food and water were provided ad libitum. On the last day of the study, all mice were sacrificed by cervical dislocation after a 4-hour food deprivation. Livers were rapidly dissected and part of each liver was cut and fixed in formaldehyde saline (4%) solution for histological analysis. The rest of the liver was snap frozen in liquid nitrogen, and stored at −70° C. until use.
Mice were acquired at 3-4 weeks of age (body weight of about 11-12 g). Mice were fed a standard chow (Control group) or mHFD (Model group) for 22 weeks. […] At week-22, based on body weight consideration, the mHFD-fed mice were screened and distributed in a balanced fashion into 3 groups for the compound treatment study (Table 1).
During the 8-week drug treatment phase, all animals (except for standard-chow controls) remain on the mHFD diet. During the treatment period, the summary of measurement schedule is as below: • 1) Body weight (BW) was taken once a week. • 2) Terminal blood and whole Liver were collected. • 3) Hepatic histology (NAS score) was assessed.
Livers were removed at necropsy and fixed in 10% buffered formalin. Sections were processed to paraffin by routine histological methods and 4 μm sections were stained with hematoxylin and eosin. Sections were evaluated under light microscopy by a board-certified veterinary pathologist for identification of proliferative lesions as well as severity scoring of lesions associated with steatohepatitis. The pathologist was blinded to the treatment status. Steatohepatitis parameters were scored and classified according to a standardized histological scoring system for NASH described by Kleiner et al., Hepatology, 2005, 41, 1313-1321. In brief, individual livers were evaluated for steatosis, lobular inflammation, and ballooning degeneration of hepatocytes, and given a score of (03) for steatosis and inflammation, and (02) for ballooning degeneration, using previously defined criteria (see below). An NAFLD activity score (NAS) was obtained by summing the individual parameter scores.
Steatosis Location: 0: Predominantly zone 3 (centrilobular); 1: Predominantly zone 1 (periportal); 2: Azonal (defined as when the pattern could not be fit into one of the other categories or marked architectural change); and 3: Panacinar (defined as involving all zones of the liver equally).
Inflammation: 0: No foci; 1: <2 foci per 200× field; 2: 2-4 foci/200× field; and 3: >4 foci/200× field.
Ballooning Degeneration: 0: None; 1: Few balloon cells; and 2: Many cells/prominent ballooning.
Data are expressed as the average±SEM at each week and analyzed by Unpaired T-tests as applicable using Prism® software (GraphPad Software, Inc., Las Jolla, Calif.). A p-value of less than 0.05 indicates a significant difference between treatment groups.

Where [4] appears, read: both treatments (30 and 100 mpk), H&E, FIG. 11.

Entries after “also recorded” stand apart in the source; their conditions may differ.

As for `Cc1cccc(Oc2cnc(=O)[nH]c2)c1` [MLR-1023, tolimidone], the “circulating serum triglyceride levels” value in experiment [1] (6 h fasted, FIG. 1) was “significantly reduced”. Besides, in experiment [1] (FIG. 2), the “accumulation of triglycerides in the liver” value is listed as “significantly reduced”. Further, the CCl4-induced collagen deposition entry in experiment [2] (100 mg per kg, 21-day treatment) was “significantly reduced”. Further, in experiment [2] (100 mg per kg, 21-day treatment, PSR), the fibrosis percentage entry is given as “reduced”. Also, the “scores of hepatic inflammation” value in experiment [2] (100 mg per kg, H&E, vs CCl4-vehicle, FIG. 12) was “reduced”. The “CCl4-induced increase of liver enzymes, especially AST” value in experiment [2] (21-day treatment, summary statement) is reported as “mild improvement; also recorded: mild effects”. Moreover, the “serum AST levels” value in experiment [2] (30 and 100 mg per kg i.p. QD day 8-28, vs CCl4-vehicle, dose-dependent manner, FIG. 9) is “trended towards improving”. For the same compound, the hepatic hydroxyproline levels entry in experiment [2] (30 and 100 mg per kg i.p. QD day 8-28, vs CCl4-vehicle, dose-dependent manner, FIG. 10) is “significantly reduced”. Moreover, the “serum ALT levels” value in experiment [2] (30 and 100 mg per kg i.p. QD day 8-28, vs CCl4-vehicle, FIG. 9) is “did not significantly affect”. Moreover, the “scores of hepatic necrosis/mineralization” value in experiment [2] (30 and 100 mg per kg, H&E, vs CCl4-vehicle, FIG. 12) was “trended towards reducing; also recorded: reduced”. In addition, the “inflammation (pathologist's general assessment)” value in experiment [2] (setting [4]) is “still present”. Further, the “necrosis (pathologist's general assessment)” value in experiment [2] (setting [4]) is given as “dose-related effect”. For the same compound, the “fibrosis (pathologist's general assessment)” value in experiment [2] (both treatments (30 and 100 mpk), PSR, FIG. 11) is reported as “dose-related effect”. In experiment [3] (30 mpk (30 mg/kg) IP, vs MD-vehicle, FIG. 6), the “NAFLD activity score (NAS)” value is given as “significantly reduced”. For the same compound, the body weight result in experiment [3] (30 mpk IP, 8-week treatment, vs MD-vehicle, FIG. 3) is on record as “significantly reduced”; in experiment [3] (100 mpk IP, 8-week treatment, vs MD-vehicle, FIG. 3) it was “trend in reduction (p=0.056)”; in experiment [3] (FIG. 3 legend, dose not stated) it was “significantly reduced”. The liver weight result in experiment [3] (30 mpk IP, 8-week treatment, vs MD-vehicle, FIG. 4) is “significantly reduced”; in experiment [3] (100 mpk IP, 8-week treatment, vs MD-vehicle, FIG. 4), “significantly reduced”; in experiment [3] (FIG. 4 legend, dose not stated), “significantly reduced”. For the same compound, in experiment [3] (30 mpk IP, vs MD-vehicle, FIG. 2), the “TG content in liver” value is “significantly reduced”. The hepatocellular ballooning result in experiment [3] (100 mpk, FIG. 7) is on record as “significantly reduced”. Besides, the “hepatocellular ballooning (histology)” value in experiment [3] (dose not stated, FIGS. 7, 8A, 8B) is recorded as “reduced amount”. Also, in experiment [3] (dose not stated, FIGS. 8A, 8B), the “steatosis (histology)” value is “reduced”.
